From US20260335282A1, “NOVEL 3-ARYLIDENE-2-INDOLINONE DERIVATIVES FOR THERAPEUTIC USE” (ISTANBUL UNIVERSITESI REKTORLUGU, priority 2022, published 2026)
Where “and” joins values, the source holds several entries; their conditions need not be identical. Equal values may be shown once. Read-outs that look alike come from different tables or passages of the source.

Legend:
Type in all cases: cell-based, human
CAKI-1 cells = assay: MTT cytotoxicity, kidney cancer cells CAKI-1
Excerpt: (§1) The cytotoxicity, general tyrosine kinase inhibitory effects and cell death (apoptosis/necrosis) assays of 1-benzyl-3-(1H-indol-3-ylmethylidene)-1,3-dihydro-2H-indol-2-one derivatives (Formula 5) of the present invention are studied by the following methods. […] HUVEC (human umbilical vein endothelial cell), MCF-10F (human breast epithelial cell) and Beas2b (human lung bronchial epithelial cell) cell lines have been used as healthy control cells in MTT experiments.
(§2) Beas2b (human lung bronchiole epithelial cell) and HEK293 (renal tubule epithelium) cells used as normal cell lines were cultured in RPMI medium, and HUVEC (human umbilical cord endothelial cells) and MCF-10F (human breast epithelial cell) cells are cultured in DMEM medium containing 100 µg/ml penicillin/streptomycin. The cells, which covered 70% of the culture flask, are washed with phosphate buffer and then removed from the surface of the flask by application of trypsin-ethylenediamine tetraacetic acid (Trypsin-EDTA; 0.25%) solution, passaged, counted and seeded on appropriate plates before each experiment. Cells are treated with a total of 45 2-indolinone compounds (5) at concentrations of 0.1, 1, 5 and 10 μM. Stock compounds are prepared in 1 ml dimethylsulfoxide (DMSO) and 4 different dilutions were prepared with medium and performed to the cells. Control group cells are treated with DMSO at a similar concentration to the experimental groups.
(§3) MTT (3-(4,5-dimethylthiazol-2-yl)-2,5-diphenyl-2H-tetrazolium bromide) colorimetric assay provides quantitation of viable cells with ongoing mitochondrial activity in culture medium. According to the standard procedure in cell culture conditions, cells are maintained in RPMI-1640 and DMEM culture media containing 10% FBS and 1% penicillin/streptomycin. The trypan blue test is used for cell counts.
(§4) The effects of 45 2-indolinone compounds (5) on cell viability in all cancer cell lines are investigated by MTT assay. Cells are seeded in a 96-well flat bottom plate with 5000 cells in each well and 2-indolinone compounds (5) at concentrations of 0.1, 1, 5 and 10 μM are performed to the cells the next day. After 48 and/or 72 hours following treatment with 2-indolinone compounds, 50 μl of the supernatant is slowly discarded (as it was acid medium) and MTT at a concentration of 5 mg/ml is added to each well in a volume of 10 μl. After incubation for 4 hours, the formazan crystals formed in the wells are dissolved by adding 100 μl DMSO and the optical density is read at 570 nm test wavelength and 630 nm reference wavelength. Cell viability is expressed as % cell viability by comparing the absorbance of control and test wells. IC50 value is calculated from the dose-response curves prepared for each compound. In addition, the possible DMSO effect is eliminated by preparing negative control wells compatible with the amount of DMSO contained in the compounds. To understand the reaction of the compounds with MTT, cell-free (MTT+compounds) negative controls are prepared at the concentrations used (Mosmann, 1983). […] The absorbance values obtained are compared to the control and statistically evaluated by unpaired t-test using “Graphpad Prism 5.04” software. “P<0.05” is accepted as significant. When evaluating cytotoxic effects, the present inventors aim for the inventive compounds to be effective in cancer cells and ineffective in healthy cells. The inventive compounds have also been compared with sunitinib, one of the reference chemotherapy drugs currently used in treatment.
(§5) Among the compounds of the present invention, those that killed cancer cells by at least 50% (p<0.05) are selected and tested whether a 10-fold concentration of the M concentration at the IC50 value is toxic to normal healthy cells.

A498 cells = assay: MTT cytotoxicity, kidney cancer cells A498; conditions: MTT
Excerpt: as §1, §2, §3, §4, §5

MCF-7 cells = assay: MTT cytotoxicity, breast cancer cells MCF-7; conditions: MTT
Excerpt: as §1, §2, §3, §4, §5

MIAPaCa-2 cells = assay: MTT cytotoxicity, pancreas cancer cells MIAPaCa-2; conditions: MTT
Excerpt: as §1, §2, §3, §4

HUVEC cells = assay: MTT cytotoxicity, healthy cells HUVEC; conditions: for IC50: MTT; for Selectivite Index, HUVEC (Table 2): HUVEC vs colon or pancreas cancer cells
Excerpt: as §1, §2, §3, §4, §5

HCT-116 cells = assay: MTT cytotoxicity, colon cancer cells HCT-116; conditions: no * mark (incubation time not specified)
Excerpt: as §1, §2, §3, §4

HT-29 cells = assay: MTT cytotoxicity, colon cancer cells HT-29; conditions: MTT, no * mark (incubation time not specified)
Excerpt: as §1, §2, §3, §4

MDA-MB-231 cells = assay: MTT cytotoxicity, breast cancer cells MDA-MB-231; conditions: read-out: IC50, MDA-MB-231 (breast), MTT
Excerpt: as §1, §2, §3, §4, §5

A549 cells = assay: MTT cytotoxicity, lung cancer cells A549; conditions: no * mark (incubation time not specified)
Excerpt: as §1, §2, §3, §4, §5

MCF-10F/Beas2b cells = assay: MTT cytotoxicity, healthy cells MCF-10F/Beas2b; conditions: for IC50: MTT; for Selectivite Index, MCF-10F/Beas2b (Table 2): MCF-10F/Beas2b vs colon or pancreas cancer cells
Excerpt: as §1, §2, §3, §4, §5

[1] = no * mark (incubation time not specified)
[2] = *: effective 72 hours after incubation
[3] = no * mark (incubation time not given)

| SMILES | IC50 (CAKI-1 cells; [1]) [µM] | IC50 (A498 cells; [1]) [µM] | IC50 (MCF-7 cells; [1]) [µM] | IC50 (MIAPaCa-2 cells; [2]) [µM] | IC50 (HUVEC cells; [1]) [µM] | IC50 (HCT-116 cells) [µM] | IC50 (HT-29 cells) [µM] | IC50 (MDA-MB-231 cells; [3]) [µM] | IC50 (A549 cells) [µM] | IC50 (A498 cells; [2]) [µM] | IC50 (MIAPaCa-2 cells; [1]) [µM] | IC50 (MCF-10F/Beas2b cells; [1]) [µM] | IC50 (CAKI-1 cells; [2]) [µM] | other results |
| --- | --- | --- | --- | --- | --- | --- | --- | --- | --- | --- | --- | --- | --- | --- |
| O=C1/C(=C\c2c[nH]c3ccccc23)c2cccc(Cl)c2N1Cc1ccc(Cl)cc1 [26C] | 4.5 | 6.92 | 3.55 | > 10 | > 10 | > 10 | > 10 | > 10 | > 10 | – | – | – | – | – |
| O=C1/C(=C\c2c[nH]c3ccccc23)c2cc(F)ccc2N1Cc1ccc(Cl)cc1 [12C] | 2.81 | – | – | – | 0.55 | 0.64 | 1.08 | – | 1.68 | 0.63 | 0.49 | 2.46 | – | IC50 (MCF-7 cells; [2]): 2.63 µM; IC50 (MCF-10F/Beas2b cells; [2]): 2.46 µM; IC50 (MDA-MB-231 cells; [2]): 6.8 µM |
| O=C1/C(=C\c2c[nH]c3ccccc23)c2cccc(F)c2N1Cc1cccc(Cl)c1 [32C] | – | 8.26 | 3.86 | – | – | 4.31 | 1.65 | 4.53 | > 10 | – | 1.35 | 1.35 | 8.76 | IC50 (HUVEC cells; [2]): 1 µM |
| O=C1/C(=C\c2c[nH]c3ccccc23)c2cc(OC(F)(F)F)ccc2N1Cc1cccc(F)c1 [2C] | – | 4.78 | 8.82 | 7.35 | 2.56 | 2.88 | > 10 | 2.91 | 3.58 | – | – | 3.07 | 5.46 | – |
| O=C1/C(=C\c2c[nH]c3ccccc23)c2cccc(F)c2N1Cc1cccc(F)c1 [30C] | – | 6.57 | 4.31 | – | – | 2.06 | > 10 | 4.21 | 6.8 | – | 1.9 | 1.9 | 7.7 | IC50 (HUVEC cells; [2]): 0.94 µM |
| Cc1ccc2c(c1)/C(=C/c1c[nH]c3ccccc13)C(=O)N2Cc1ccc(Cl)cc1 [47C] | 4.66 | – | 5 | – | > 10 | > 10 | > 10 | > 10 | 2.65 | 0.9 | > 10 | – | – | Selectivite Index (SI), HUVEC (Table 1) (HUVEC cells; HUVEC vs breast or kidney cancer cells, cancer line not given): > 11.11; Selectivite Index (SI), MCF-10F/Beas2b (Table 1) (MCF-10F/Beas2b cells; MCF-10F/Beas2b vs breast or kidney cancer cells, cancer line not given): 2.88; IC50 (MCF-10F/Beas2b cells; [2]): 2.6 µM |
| Cc1cccc(CN2C(=O)/C(=C\c3c[nH]c4ccccc34)c3ccccc32)c1 [50C] | 4.96 | – | – | – | 0.86 | 0.5 | 1.49 | 4.3 | 4.6 | 3.85 | 2.96 | 4.37 | – | IC50 (MCF-7 cells; [2]): 4.15 µM; Selectivite Index, HUVEC (Table 2) (HUVEC cells; cancer line not given): 1.72; Selectivite Index, MCF-10F/Beas2b (Table 2) (MCF-10F/Beas2b cells; cancer line not given): 8.74 |
| O=C1/C(=C\c2c[nH]c3ccccc23)c2cccc(F)c2N1Cc1ccc(F)cc1 [31C] | – | 2.85 | 7.1 | – | 1.26 | 0.39 | 3.95 | – | 3.64 | – | 0.73 | 4.42 | 9.14 | Selectivite Index, HUVEC (Table 2) (HUVEC cells; cancer line not given): 3.23 and 1.72; Selectivite Index, MCF-10F/Beas2b (Table 2) (MCF-10F/Beas2b cells; cancer line not given): 11.33 and 6.05; IC50 (MDA-MB-231 cells; [2]): 9.09 µM |
| O=C1/C(=C\c2c[nH]c3ccccc23)c2cc(F)ccc2N1Cc1cccc(Cl)c1 [11C] | 9.81 | > 10 | > 10 | > 10 | > 10 | > 10 | > 10 | 7.25 | > 10 | – | – | – | – | – |
